Laboratory results as given in US20090298825A1, “Bicycloheteroaryl Compounds as P2x7 Modulators and Uses Thereof” (priority 2006, published 2009).
Read-outs that look alike come from different tables or passages of the source.

Biological target: T1, P2X7 receptor (Homo sapiens, UniProt Q99572)
T1 construct: endogenous in cells; host or cells: THP-1 cells differentiated with LPS and IFN-γ
T1 sequence (Q99572 1-595): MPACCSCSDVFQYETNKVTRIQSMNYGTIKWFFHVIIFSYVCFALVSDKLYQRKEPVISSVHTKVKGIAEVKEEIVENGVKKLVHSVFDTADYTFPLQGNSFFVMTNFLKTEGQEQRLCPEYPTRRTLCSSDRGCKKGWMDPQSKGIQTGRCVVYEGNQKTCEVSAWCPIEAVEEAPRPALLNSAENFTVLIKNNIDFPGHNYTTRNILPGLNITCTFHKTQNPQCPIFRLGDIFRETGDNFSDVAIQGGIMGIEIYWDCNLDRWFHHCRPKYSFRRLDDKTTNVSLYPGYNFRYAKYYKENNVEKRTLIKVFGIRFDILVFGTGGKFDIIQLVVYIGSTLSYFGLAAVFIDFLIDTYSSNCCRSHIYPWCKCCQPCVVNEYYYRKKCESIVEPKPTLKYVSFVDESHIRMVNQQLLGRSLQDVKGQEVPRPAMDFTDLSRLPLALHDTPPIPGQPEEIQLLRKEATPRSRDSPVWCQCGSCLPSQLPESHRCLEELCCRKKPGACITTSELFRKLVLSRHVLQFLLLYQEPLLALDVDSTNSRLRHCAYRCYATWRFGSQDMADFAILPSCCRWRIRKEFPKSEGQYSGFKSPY
Test: IL-1β release assay in differentiated THP-1 cells stimulated with BzATP (Example 9)
Assay type: cell-based
Conditions: for inhibition at 0.3 µM: 0.3 μM concentration, read-out: IL-1β % Inhib. @ 0.3 or 0.1 μM; for IC50: four parameter logistic fit
Method: The cells are then pretreated for 30 minutes with the compound of interest at the appropriate concentration in RPMI media containing 100 IU/mL penicillin, 100 ug/mL streptomycin. […] 30 uL of cell supernatant is then collected and IL-1β levels determined via ELISA (R&D systems Cat. # HSLB50) according to manufacturer's recommendations using the Tecan Safire plate reader. Background adjusted IL-1β levels of drug treated and non-treated cells are used to calculate the percent inhibition.
The compounds set forth in Table 1 were tested for activity in a cellular model as described herein. […] Measurements were made and IC50 values, presented in Table 2, below, were determined by fitting the data to a four parameter logistic equation using GraphPad Prism software (GraphPad Software, Inc). The equation may be expressed by the following formula:
Y=Bottom+(Top-Bottom)/(1+10̂((Log EC50−X)*HillSlope))
Where X is the logarithm of concentration, Y is the response and Y starts at Bottom and goes to Top with a sigmoid shape.

Compound	inhibition at 0.3 µM	IC50 (read-out: IL-1β IC50)	IC50 (IL-1β IC50 (nM))
Cc1cc(-n2ccc3c(NC(=O)C(C)c4ccc(Cl)c(C(F)(F)F)c4)cccc3c2=O)n[nH]1 (stereo not shown) [ID 838]	> 76%	14.9 nM	–
CC(C(=O)Nc1cccc2c(=O)n(-c3cc[nH]n3)ccc12)c1ccc(Cl)c(C(F)(F)F)c1 (stereo not shown) [ID 839]	> 76%	14.1 nM	–
CC(C(=O)Nc1cccc2c(=O)n(-c3n[nH]cc3C#N)ccc12)c1ccc(Cl)c(C(F)(F)F)c1 (stereo not shown) [ID 840]	> 76%	37.6 nM	–
O=C(CC12CC3CC(CC(C3)C1)C2)Nc1cccc2c(=O)n(-c3cc[nH]n3)ccc12 [ID 841]	> 76%	0.295 nM	–
CC(C(=O)Nc1cccc2c(=O)n(-c3cc[nH]n3)ccc12)C1CCCCCC1 (stereo not shown) [ID 843]	> 76%	12.2 nM	–
O=C(CC1CCCCCC1)Nc1cccc2c(=O)n(-c3cc[nH]n3)ccc12 [ID 844]	> 76%	3.33 nM	–
O=C(Cc1cccc(C(F)(F)F)c1F)Nc1cccc2c(=O)n(C3CN4CCC3CC4)ccc12 (stereo not shown) [ID 845]	> 76%	134 nM	–
O=C(Cc1ccc(Cl)cc1F)Nc1cccc2c(=O)n(C3CN4CCC3CC4)ccc12 (stereo not shown) [ID 846]	> 76%	162 nM	–
O=C(Cc1ccc(Cl)c(C(F)(F)F)c1)Nc1cccc2c(=O)n(-c3cccnc3N3CCOCC3)ccc12 [ID 848]	> 76%	44.4 nM	–
O=C(CC1(O)CCCCCC1)Nc1cccc2c(=O)n([C@H]3CCNC3)ccc12 [ID 849]	0 to 25%	403 nM	–
O=C(CC12CC3CC(CC(C3)C1)C2)Nc1cccc2c(=O)n(C3CN4CCC3CC4)ccc12 (stereo not shown) [ID 850]	> 76%	–	1.88 nM
Cc1ncccc1-n1ccc2c(NC(=O)Cc3ccc(C(F)(F)F)cc3)cccc2c1=O [ID 851]	> 76%	147 nM	–
Cc1ccncc1-n1ccc2c(NC(=O)Cc3cccc(C(F)(F)F)c3F)cccc2c1=O [ID 852]	> 76%	43.1 nM	–
Cc1ccncc1-n1ccc2c(NC(=O)Cc3ccc(C(F)(F)F)cc3)cccc2c1=O [ID 853]	51 to 75%	245 nM	–
Cc1ncccc1-n1ccc2c(NC(=O)Cc3cccc(C(F)(F)F)c3F)cccc2c1=O [ID 854]	> 76%	27.1 nM	–
Cc1ccncc1-n1ccc2c(NC(=O)Cc3ccc(C(F)(F)F)c(F)c3)cccc2c1=O [ID 856]	> 76%	129 nM	–

Compound	inhibition at 0.3 µM	IC50 (read-out: IL-1β IC50)	IC50 (IL-1β IC50 (nM))
Cc1ncccc1-n1ccc2c(NC(=O)Cc3ccc(Cl)cc3F)cccc2c1=O [ID 859]	> 76%	50.1 nM	–
Cc1ncccc1-n1ccc2c(NC(=O)Cc3ccc(F)c(C(F)(F)F)c3)cccc2c1=O [ID 860]	> 76%	13.9 nM	–
Cc1ncccc1-n1ccc2c(NC(=O)C(C)c3cccc(C(F)(F)F)c3F)cccc2c1=O (stereo not shown) [ID 862]	> 76%	17.2 nM	–
Cc1ncccc1-n1ccc2c(NC(=O)[C@H](C)c3ccc(Cl)cc3)cccc2c1=O [ID 863]	> 76%	43 nM	–
Cc1ncccc1-n1ccc2c(NC(=O)[C@@H](C)c3ccc(Cl)cc3)cccc2c1=O [ID 864]	> 76%	111 nM	–
Cc1ncccc1-n1ccc2c(NC(=O)Cc3ccc(C(F)(F)F)cc3F)cccc2c1=O [ID 865]	> 76%	76.7 nM	–
Cc1ncccc1-n1ccc2c(NC(=O)Cc3cc(F)c(F)c(F)c3)cccc2c1=O [ID 866]	51 to 75%	98.5 nM	–
Cc1ncccc1-n1ccc2c(NC(=O)Cc3ccc(F)c(F)c3F)cccc2c1=O [ID 867]	> 76%	40.5 nM	–
Cc1ncccc1-n1ccc2c(NC(=O)Cc3ccc(C(F)(F)F)cc3C(F)(F)F)cccc2c1=O [ID 868]	> 76%	68.7 nM	–
O=C(Cc1ccc(F)c(C(F)(F)F)c1)Nc1cccc2c(=O)n(-c3cccnc3F)ccc12 [ID 872]	> 76%	30.4 nM	–
O=C(Cc1cccc(C(F)(F)F)c1F)Nc1cccc2c(=O)n(-c3cccnc3F)ccc12 [ID 874]	> 76%	27.9 nM	–
CC(C(=O)Nc1cccc2c(=O)n(-c3cccnc3F)ccc12)c1cccc(C(F)(F)F)c1F (stereo not shown) [ID 875]	> 76%	8.32 nM	–
O=C(CC12CC3CC(CC(C3)C1)C2)Nc1cccc2c(=O)n(C3CC3)ccc12 [ID 889]	> 76%	0.777 nM	–
Cc1ccc2c(=O)n([C@H]3CCNC3)ccc2c1NC(=O)Cc1ccc(C(F)(F)F)c(F)c1 [ID 900]	> 76%	40.2 nM	–
Cc1ccc2c(=O)n([C@H]3CCNC3)ccc2c1NC(=O)Cc1ccc(F)c(C(F)(F)F)c1 [ID 901]	> 76%	11 nM	–

Second part, led by results:

inhibition at 0.3 µM	IC50 (read-out: IL-1β IC50)	Compound	IC50 (IL-1β IC50 (nM))
> 76%	1.24 nM	O=C(Cc1ccc(Cl)c(C(F)(F)F)c1)Nc1cccc2c(=O)n(-c3cc[nH]n3)ccc12 [ID 842]	–
> 76%	75.7 nM	Cc1ncccc1-n1ccc2c(NC(=O)Cc3ccc(F)c(Cl)c3)cccc2c1=O [ID 857]	–
> 76%	32.8 nM	Cc1ncccc1-n1ccc2c(NC(=O)Cc3ccc(Cl)c(F)c3)cccc2c1=O [ID 858]	–
> 76%	43.9 nM	Cc1ncccc1-n1ccc2c(NC(=O)Cc3ccc(Cl)c(Cl)c3)cccc2c1=O [ID 869]	–
> 76%	4.97 nM	O=C(Cc1ccc(Cl)c(C(F)(F)F)c1)Nc1cccc2c(=O)n(-c3cccnc3F)ccc12 [ID 870]	–
> 76%	31.4 nM	O=C(Cc1ccc(Cl)c(F)c1)Nc1cccc2c(=O)n(-c3cccnc3F)ccc12 [ID 873]	–
> 76%	15 nM	O=C(Cc1ccc(Cl)c(Cl)c1)Nc1cccc2c(=O)n(C3CC3)ccc12 [ID 876]	–
> 76%	23.7 nM	O=C(Cc1ccc(C(F)(F)F)cc1)Nc1cccc2c(=O)n(C3CC3)ccc12 [ID 877]	–
> 76%	2.21 nM	O=C(CC1CCCCCC1)Nc1cccc2c(=O)n(C3CC3)ccc12 [ID 878]	–
> 76%	6.79 nM	O=C(Cc1ccc(C(F)(F)F)c(F)c1)Nc1cccc2c(=O)n(C3CC3)ccc12 [ID 879]	–
> 76%	67.8 nM	O=C(Cc1ccc(C(F)(F)F)cc1C(F)(F)F)Nc1cccc2c(=O)n(C3CC3)ccc12 [ID 880]	–
> 76%	4.32 nM	O=C(Cc1ccc(F)c(Cl)c1)Nc1cccc2c(=O)n(C3CC3)ccc12 [ID 881]	–
> 76%	6.04 nM	O=C(Cc1ccc(Cl)c(F)c1)Nc1cccc2c(=O)n(C3CC3)ccc12 [ID 882]	–
> 76%	0.322 nM	O=C(Cc1cccc(C(F)(F)F)c1F)Nc1cccc2c(=O)n(C3CC3)ccc12 [ID 885]	–
> 76%	20.3 nM	O=C(Cc1cccc(C(F)(F)F)c1F)Nc1cccc2c(=O)n(C3CCC3)ccc12 [ID 886]	–
> 76%	28.5 nM	O=C(Cc1ccc(C(F)(F)F)cc1F)Nc1cccc2c(=O)n(C3CCC3)ccc12 [ID 887]	–
> 76%	14.4 nM	O=C(Cc1ccc(Cl)cc1F)Nc1cccc2c(=O)n(C3CCC3)ccc12 [ID 888]	–
> 76%	4.33 nM	O=C(Cc1ccc(Cl)c(C(F)(F)F)c1)Nc1cccc2c(=O)n(C3CC3)ccc12 [ID 890]	–
51 to 75%	283 nM	O=C(Cc1ccc(C(F)(F)F)cc1)Nc1cccc2c(=O)n(C3CCC3)ccc12 [ID 891]	–
> 76%	22.1 nM	O=C(Cc1ccc(C(F)(F)F)c(F)c1)Nc1cccc2c(=O)n(C3CCC3)ccc12 [ID 892]	–
> 76%	48.3 nM	O=C(Cc1ccc(F)c(Cl)c1)Nc1cccc2c(=O)n(C3CCC3)ccc12 [ID 893]	–
> 76%	31.9 nM	C[C@H](C(=O)Nc1cccc2c(=O)n(C3CC3)ccc12)c1ccc(Cl)cc1 [ID 894]	–
> 76%	24.5 nM	O=C(Cc1ccc(Cl)c(F)c1)Nc1cccc2c(=O)n(C3CCC3)ccc12 [ID 897]	–
> 76%	23.6 nM	O=C(Cc1ccc(Cl)c(Cl)c1)Nc1cccc2c(=O)n(C3CCC3)ccc12 [ID 898]	–
> 76%	6.19 nM	O=C(Cc1ccc(Cl)c(C(F)(F)F)c1)Nc1cccc2c(=O)n(C3CCC3)ccc12 [ID 899]	–
